Results reported in ChEMBL document CHEMBL1201862, “PubChem BioAssay data set” (2004).
The source made the active and inactive calls.

What was measured:
[1] = molecular target: DNA dC->dU-editing enzyme APOBEC-3A (Homo sapiens, UniProt P31941); assay: Dose Response confirmation of small molecule APOBEC3A DNA Deaminase Inhibitors via a fluorescence-based single-stranded DNA deaminase assay. [Related pubchem assays (depositor defined):AID493011, AID493024]; type: functional
[2] = molecular target: DNA dC->dU-editing enzyme APOBEC-3G (Homo sapiens, UniProt Q9HC16); type: functional;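 further: Dose-response counterscreen measuring inhibition of APOBEC3G DNA deaminase activity, run while confirming APOBEC3A inhibitors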
HeLa = assay: HeLa cell cytotoxicity, dose response, cytotoxicity control for MITF activator project, CellTiter-Glo luminescence, cherry-pick samples (AID 540259); type: functional, cell-based; settings: Homo sapiens
Fatty acid synthase [3] = molecular target: T1, Fatty acid synthase (Homo sapiens, UniProt P49327); assay: FAS thioesterase domain inhibitors, dose response, biochemical, kinetic fluorescence intensity (AID 624326); type: functional;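 further: rate of fluorescence rise from hydrolysis of a fluorogenic O-methyl fluorescein ester substrate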
Fatty acid synthase [4] = molecular target: T1, Fatty acid synthase; assay: FAS thioesterase domain inhibitors, dose response, biochemical, endpoint fluorescence intensity, uHTS hits (AID 624327); type: functional;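 further: fluorescence from hydrolysis of an O-methyl fluorescein acyl ester substrate by the enzyme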
Protein skinhead-1 = molecular target: T2, Protein skinhead-1 (Caenorhabditis elegans, UniProt P34707); type: functional
T2 sequence (P34707 whole entry): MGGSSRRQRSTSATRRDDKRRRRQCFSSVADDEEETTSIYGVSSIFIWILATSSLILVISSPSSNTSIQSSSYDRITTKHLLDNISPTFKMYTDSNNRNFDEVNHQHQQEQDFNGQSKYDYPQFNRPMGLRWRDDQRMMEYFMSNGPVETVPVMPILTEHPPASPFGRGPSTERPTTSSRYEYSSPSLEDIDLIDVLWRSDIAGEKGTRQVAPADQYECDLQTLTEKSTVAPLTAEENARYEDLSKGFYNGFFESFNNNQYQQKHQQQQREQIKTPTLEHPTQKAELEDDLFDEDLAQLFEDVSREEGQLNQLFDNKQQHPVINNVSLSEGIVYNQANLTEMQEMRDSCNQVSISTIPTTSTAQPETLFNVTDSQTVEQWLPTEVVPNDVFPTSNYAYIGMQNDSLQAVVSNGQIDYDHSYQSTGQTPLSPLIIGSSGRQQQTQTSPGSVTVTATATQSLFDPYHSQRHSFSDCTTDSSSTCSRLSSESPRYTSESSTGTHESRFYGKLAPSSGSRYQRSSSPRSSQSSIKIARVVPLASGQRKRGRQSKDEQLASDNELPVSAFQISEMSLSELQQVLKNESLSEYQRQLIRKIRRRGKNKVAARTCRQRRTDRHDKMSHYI

Albumin = Albumin (Bos taurus, UniProt P02769); assay: Counterscreen for inhibitors of T-cell receptor (TCR)-CD3 interaction: Fluorescence-based biochemical high throughput dose response assay to identify inhibitors of T-cell receptor (TCR)-CD3 interaction using a TAMRA-labeled BSA probe.; type: functional
[5] = molecular target: T3, High affinity choline transporter 1 (Homo sapiens, UniProt Q9GZV3); assay: CHT inhibitors, dose response, cell-based, 5-point CRC, membrane potential dye (AID 504840); type: functional
T3 sequence (Q9GZV3 whole entry): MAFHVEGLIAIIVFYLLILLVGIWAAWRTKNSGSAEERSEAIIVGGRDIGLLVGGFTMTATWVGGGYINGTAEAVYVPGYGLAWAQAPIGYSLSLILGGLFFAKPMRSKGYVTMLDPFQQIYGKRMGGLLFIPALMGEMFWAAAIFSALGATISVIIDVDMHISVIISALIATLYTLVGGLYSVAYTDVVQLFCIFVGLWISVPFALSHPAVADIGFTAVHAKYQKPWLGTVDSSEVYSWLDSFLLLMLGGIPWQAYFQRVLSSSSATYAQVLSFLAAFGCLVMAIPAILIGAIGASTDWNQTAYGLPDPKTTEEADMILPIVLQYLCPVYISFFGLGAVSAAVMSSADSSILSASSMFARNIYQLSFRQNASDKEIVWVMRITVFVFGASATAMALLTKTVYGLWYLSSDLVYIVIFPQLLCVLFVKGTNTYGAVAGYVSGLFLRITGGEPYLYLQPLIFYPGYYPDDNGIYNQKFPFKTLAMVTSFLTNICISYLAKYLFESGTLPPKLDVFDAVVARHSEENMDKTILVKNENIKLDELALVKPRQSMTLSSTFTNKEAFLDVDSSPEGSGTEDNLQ

[6] = molecular target: Heat shock protein HSP 90-alpha (Homo sapiens, UniProt P07900); type: functional, organism-based
[7] = molecular target: T4, Zinc finger protein mex-5 (Caenorhabditis elegans, UniProt Q9XUB2); assay: MEX-5/TCR-2 RNA interaction inhibitors, dose response, biochemical, C. elegans, fluorescence polarization (AID 1960)
T4 sequence (Q9XUB2 whole entry): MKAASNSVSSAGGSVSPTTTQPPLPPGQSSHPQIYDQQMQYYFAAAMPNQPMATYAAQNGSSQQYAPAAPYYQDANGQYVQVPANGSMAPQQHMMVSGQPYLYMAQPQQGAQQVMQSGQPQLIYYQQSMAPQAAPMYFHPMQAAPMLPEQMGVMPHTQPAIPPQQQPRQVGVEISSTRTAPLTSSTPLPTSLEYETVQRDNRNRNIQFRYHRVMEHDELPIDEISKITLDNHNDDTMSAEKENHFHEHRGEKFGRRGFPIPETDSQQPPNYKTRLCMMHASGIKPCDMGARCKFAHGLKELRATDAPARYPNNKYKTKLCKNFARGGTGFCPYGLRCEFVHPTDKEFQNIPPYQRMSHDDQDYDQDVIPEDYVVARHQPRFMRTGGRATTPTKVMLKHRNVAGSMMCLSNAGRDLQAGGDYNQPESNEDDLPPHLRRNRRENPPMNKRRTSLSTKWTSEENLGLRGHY

[8] = molecular target: T5, RNA-binding protein pos-1 (Caenorhabditis elegans, UniProt G5EF15); assay: inhibitors of POS-1/mex-3 RNA binding, dose response, biochemical, fluorescence polarization (AID 1964);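 further: purified POS-1 fused to maltose binding protein made in E. coli; potency of compounds blocking POS-1 binding to fluorescent RNA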
T5 sequence (G5EF15 whole entry): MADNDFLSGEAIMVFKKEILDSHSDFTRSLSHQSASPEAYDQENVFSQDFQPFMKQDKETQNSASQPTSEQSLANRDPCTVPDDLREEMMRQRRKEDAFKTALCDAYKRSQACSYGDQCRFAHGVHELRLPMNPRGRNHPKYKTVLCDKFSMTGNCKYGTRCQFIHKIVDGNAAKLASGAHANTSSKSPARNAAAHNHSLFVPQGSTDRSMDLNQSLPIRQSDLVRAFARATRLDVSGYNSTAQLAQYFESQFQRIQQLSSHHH

Genome polyprotein = Genome polyprotein (dengue virus type 2, UniProt P29990); assay: Dengue-2 NS5 methyltransferase inhibitors, primary screen, biochemical, confirmation dose response (AID 588689); type: functional
Caspase-6 = molecular target: T6, Caspase-6 (Homo sapiens, UniProt P55212); assay: human caspase-6 inhibitors, dose response, biochemical, VEID-R110 fluorescence, cherry-pick (AID 720632)
T6 sequence (P55212 whole entry): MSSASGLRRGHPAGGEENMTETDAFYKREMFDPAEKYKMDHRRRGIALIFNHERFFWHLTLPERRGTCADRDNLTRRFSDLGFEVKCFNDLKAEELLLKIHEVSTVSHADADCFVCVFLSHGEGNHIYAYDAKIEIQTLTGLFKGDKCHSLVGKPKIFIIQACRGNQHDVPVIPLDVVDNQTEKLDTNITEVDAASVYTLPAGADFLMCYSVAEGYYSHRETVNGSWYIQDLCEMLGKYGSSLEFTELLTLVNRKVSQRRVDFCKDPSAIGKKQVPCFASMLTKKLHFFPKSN

[9] = Luminescence Cell-Based Dose Confirmation HTS to Identify Activators of 5'UTR Stem-Loop Driven Alpha-Synuclein mRNA Translation in H4 Neuroglioblastoma Cells. [Related pubchem assays: 1829 (Project Summary), 1814 (Primary HTS)]; type: functional
[10] = Counterscreen for inhibitors of Trypanosoma brucei methionyl tRNA synthetase (MetRS): Luminescence-based cell-based high throughput dose response assay to identify compounds that are cytotoxic to Jurkat human T lymphocyte cells.; type: functional
H4 = assay: Luminescence Cell-Based Dose Response HTS to Identify Activators of 5'UTR Stem-Loop Driven Prion Protein mRNA Translation in H4 Neuroglioblastoma Cells. [Related pubchem assays: 1829 (Project Summary), 1814 (Primary HTS)]; type: functional; settings: Homo sapiens
[11] = Luminescence Cell-Based Dose Response HTS to Identify Activators of Luciferase Translation or Activity in H4 […] Cells. [Related pubchem assays: 1829 (Project Summary), 1814 (Primary HTS)]; type: functional
[12] = HEp-2 cell cytotoxicity, dose response, cytotoxicity control for RSV inhibitor project, HTS (AID 2410); type: functional; settings: human respiratory syncytial virus
[13] = A cytotoxicity screen of small molecule inhibitors of the PhoP region in Salmonella typhi identified in the primary screen. [Related pubchem assays: 1850, 1864, 1985 ]; type: functional
Nonstructural protein 1 = Nonstructural protein 1 (Influenza A virus, UniProt Q194T2); type: functional, Influenza A virus (A/California/07/2009(H1N1))
Chain of Nonstructural protein 1 (Q194T2 whole entry): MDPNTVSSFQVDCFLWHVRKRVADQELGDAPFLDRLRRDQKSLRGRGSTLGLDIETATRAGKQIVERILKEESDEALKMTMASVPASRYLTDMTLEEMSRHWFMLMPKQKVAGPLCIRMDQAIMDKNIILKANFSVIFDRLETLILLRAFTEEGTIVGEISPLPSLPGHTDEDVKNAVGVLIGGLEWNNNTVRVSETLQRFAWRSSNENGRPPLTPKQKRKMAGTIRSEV

Chain of DNA dC->dU-editing enzyme APOBEC-3A (P31941 whole entry): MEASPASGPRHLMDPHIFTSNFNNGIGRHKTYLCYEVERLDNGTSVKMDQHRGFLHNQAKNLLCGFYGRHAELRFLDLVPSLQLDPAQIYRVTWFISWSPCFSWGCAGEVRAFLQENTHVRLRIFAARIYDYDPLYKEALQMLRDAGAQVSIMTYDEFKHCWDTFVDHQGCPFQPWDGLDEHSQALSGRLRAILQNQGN
Chain of DNA dC->dU-editing enzyme APOBEC-3G (Q9HC16 whole entry): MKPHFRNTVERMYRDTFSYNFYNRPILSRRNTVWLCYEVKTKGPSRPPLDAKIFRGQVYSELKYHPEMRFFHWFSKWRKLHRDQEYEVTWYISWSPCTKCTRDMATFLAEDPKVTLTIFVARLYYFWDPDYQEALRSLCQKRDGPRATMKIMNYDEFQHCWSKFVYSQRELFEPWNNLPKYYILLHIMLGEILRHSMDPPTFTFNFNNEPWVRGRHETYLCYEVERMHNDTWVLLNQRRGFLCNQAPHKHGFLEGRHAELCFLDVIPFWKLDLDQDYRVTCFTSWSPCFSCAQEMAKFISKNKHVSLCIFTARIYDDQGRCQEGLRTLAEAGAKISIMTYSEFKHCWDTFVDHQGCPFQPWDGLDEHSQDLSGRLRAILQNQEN
T1 sequence (P49327 whole entry, the tested form may be a part): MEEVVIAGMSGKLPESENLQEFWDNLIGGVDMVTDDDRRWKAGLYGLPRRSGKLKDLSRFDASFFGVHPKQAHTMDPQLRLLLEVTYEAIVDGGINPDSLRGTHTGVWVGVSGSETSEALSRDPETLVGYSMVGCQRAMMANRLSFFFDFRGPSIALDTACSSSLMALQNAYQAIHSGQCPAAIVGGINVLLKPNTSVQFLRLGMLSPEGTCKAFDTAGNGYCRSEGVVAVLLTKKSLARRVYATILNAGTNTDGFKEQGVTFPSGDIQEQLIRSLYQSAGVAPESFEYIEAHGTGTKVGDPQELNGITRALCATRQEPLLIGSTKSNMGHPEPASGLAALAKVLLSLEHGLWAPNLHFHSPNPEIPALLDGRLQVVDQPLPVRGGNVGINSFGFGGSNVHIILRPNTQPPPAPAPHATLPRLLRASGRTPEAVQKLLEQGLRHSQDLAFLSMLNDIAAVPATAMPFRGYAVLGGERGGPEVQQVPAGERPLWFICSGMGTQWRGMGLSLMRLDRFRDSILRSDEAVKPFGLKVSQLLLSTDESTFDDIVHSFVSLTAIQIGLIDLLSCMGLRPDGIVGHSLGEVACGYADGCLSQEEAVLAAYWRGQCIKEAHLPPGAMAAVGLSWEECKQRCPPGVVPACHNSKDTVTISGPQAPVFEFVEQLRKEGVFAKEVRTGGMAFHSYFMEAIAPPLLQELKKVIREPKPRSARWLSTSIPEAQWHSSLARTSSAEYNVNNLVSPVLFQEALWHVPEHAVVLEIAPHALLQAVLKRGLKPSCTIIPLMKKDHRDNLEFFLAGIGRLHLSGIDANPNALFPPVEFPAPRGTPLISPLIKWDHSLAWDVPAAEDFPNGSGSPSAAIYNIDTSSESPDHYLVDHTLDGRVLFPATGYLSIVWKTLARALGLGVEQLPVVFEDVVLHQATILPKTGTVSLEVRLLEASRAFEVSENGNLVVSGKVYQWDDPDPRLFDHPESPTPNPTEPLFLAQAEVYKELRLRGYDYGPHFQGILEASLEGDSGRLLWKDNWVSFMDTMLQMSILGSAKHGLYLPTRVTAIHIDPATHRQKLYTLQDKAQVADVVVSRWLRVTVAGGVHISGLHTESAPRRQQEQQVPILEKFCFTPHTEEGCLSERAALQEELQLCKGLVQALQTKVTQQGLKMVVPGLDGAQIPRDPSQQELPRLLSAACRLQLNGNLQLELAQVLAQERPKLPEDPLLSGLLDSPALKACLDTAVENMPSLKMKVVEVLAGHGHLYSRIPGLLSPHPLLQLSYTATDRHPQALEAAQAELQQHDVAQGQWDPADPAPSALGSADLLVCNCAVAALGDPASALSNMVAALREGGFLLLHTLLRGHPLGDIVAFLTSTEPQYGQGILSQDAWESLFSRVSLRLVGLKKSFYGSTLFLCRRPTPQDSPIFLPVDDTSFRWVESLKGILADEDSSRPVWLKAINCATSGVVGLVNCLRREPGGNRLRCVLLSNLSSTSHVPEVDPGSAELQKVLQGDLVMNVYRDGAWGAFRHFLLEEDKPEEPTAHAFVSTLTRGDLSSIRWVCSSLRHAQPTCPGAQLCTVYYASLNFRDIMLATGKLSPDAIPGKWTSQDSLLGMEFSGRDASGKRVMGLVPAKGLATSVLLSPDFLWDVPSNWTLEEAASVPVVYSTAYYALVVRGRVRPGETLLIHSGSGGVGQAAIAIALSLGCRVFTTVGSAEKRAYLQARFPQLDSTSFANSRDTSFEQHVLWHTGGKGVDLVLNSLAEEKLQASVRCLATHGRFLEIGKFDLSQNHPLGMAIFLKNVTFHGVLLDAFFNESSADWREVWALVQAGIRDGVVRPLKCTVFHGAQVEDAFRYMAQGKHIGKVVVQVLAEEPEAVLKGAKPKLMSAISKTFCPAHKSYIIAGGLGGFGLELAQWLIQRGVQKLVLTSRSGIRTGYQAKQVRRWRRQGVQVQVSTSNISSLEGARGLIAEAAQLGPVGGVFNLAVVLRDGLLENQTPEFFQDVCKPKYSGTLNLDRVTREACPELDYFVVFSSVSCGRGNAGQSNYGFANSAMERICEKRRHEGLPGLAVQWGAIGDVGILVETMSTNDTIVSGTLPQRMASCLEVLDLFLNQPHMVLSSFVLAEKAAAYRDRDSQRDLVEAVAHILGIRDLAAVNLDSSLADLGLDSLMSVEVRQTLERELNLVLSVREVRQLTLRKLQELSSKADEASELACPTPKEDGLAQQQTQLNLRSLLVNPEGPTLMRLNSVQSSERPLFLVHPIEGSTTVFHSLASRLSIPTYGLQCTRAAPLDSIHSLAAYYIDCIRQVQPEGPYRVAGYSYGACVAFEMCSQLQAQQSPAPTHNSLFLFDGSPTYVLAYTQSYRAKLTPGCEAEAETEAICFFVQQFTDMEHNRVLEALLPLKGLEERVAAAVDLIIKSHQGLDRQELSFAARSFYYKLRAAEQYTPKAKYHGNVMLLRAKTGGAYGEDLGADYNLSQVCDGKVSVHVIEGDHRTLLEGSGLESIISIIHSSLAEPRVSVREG
Chain of Albumin (P02769 whole entry): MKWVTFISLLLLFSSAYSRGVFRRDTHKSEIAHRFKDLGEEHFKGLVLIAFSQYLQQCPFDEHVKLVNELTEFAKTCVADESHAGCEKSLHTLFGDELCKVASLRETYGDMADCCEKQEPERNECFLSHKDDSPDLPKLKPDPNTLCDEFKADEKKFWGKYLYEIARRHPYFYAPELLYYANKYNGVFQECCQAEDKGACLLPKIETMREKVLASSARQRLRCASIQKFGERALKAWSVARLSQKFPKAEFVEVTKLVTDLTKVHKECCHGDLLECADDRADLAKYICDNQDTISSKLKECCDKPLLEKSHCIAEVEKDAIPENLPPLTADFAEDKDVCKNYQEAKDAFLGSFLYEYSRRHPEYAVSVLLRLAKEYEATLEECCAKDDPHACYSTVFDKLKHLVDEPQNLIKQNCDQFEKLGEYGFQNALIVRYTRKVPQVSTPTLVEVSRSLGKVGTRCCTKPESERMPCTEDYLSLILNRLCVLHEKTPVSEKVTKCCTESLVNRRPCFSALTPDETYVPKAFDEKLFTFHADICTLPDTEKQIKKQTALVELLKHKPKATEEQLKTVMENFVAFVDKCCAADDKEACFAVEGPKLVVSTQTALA
Chain of Genome polyprotein (P29990 2492-3391 limits assumed): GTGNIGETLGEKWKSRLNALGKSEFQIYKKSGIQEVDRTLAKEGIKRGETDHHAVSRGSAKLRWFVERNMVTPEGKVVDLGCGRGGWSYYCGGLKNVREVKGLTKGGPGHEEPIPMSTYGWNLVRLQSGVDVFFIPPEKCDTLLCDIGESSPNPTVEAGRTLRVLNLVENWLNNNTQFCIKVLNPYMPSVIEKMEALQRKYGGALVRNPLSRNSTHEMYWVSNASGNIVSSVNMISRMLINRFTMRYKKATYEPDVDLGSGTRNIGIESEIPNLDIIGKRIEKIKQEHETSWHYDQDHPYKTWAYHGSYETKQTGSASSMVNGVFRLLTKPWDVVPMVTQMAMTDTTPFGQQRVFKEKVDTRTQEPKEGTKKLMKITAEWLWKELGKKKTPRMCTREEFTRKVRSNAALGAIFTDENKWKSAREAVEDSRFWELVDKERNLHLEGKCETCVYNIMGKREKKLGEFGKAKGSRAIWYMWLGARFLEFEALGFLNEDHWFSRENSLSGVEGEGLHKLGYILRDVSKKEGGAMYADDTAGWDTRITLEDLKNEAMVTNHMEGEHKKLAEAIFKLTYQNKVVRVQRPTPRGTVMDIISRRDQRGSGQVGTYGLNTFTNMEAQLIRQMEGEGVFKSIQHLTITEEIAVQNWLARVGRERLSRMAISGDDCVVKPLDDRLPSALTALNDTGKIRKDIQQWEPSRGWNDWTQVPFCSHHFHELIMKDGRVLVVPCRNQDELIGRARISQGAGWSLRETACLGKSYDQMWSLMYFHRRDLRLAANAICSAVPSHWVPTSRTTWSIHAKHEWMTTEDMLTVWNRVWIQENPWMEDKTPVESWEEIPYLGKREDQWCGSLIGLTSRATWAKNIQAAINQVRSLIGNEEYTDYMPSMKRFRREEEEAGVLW

Structure (SMILES): CSC1=NCCN1CCOc1ccccc1
- IC50 [1]: 6.77 µM (active)
- IC50 [2]: 8.19 µM (active)

Structure (SMILES): CCCc1cc(C(=O)Nc2cc(Cl)ccc2O)no1
- AC50 (HeLa): > 350 µM (inactive)

Structure (SMILES): CC(C)CSc1ncc(-c2cccc(C(F)(F)F)c2)cn1
- IC50 (Fatty acid synthase [3]): 14.2 µM (active)
- IC50 (Fatty acid synthase [4]): 15.5 µM (active)

Structure (SMILES): CCc1ccc(N2Cc3ccccc3C2)cc1
- AC50 (HeLa): 43.5 µM (active)

Structure (SMILES): O=C(Nc1ccc(OC(F)F)c(Cl)c1)c1ccccn1
- IC50 (Protein skinhead-1): 51.6 µM (inactive)
- AC50 (HeLa): 99.7 µM (active)

Structure (SMILES): COC(=O)Nc1ccc(S(=O)(=O)NNC(=O)c2c(O)c3ccccc3n(C)c2=O)cc1
- IC50 (Albumin): > 94.1 µM (inactive)
- IC50 [5]: 13.2 µM (active)

Structure (SMILES): CCC(=O)OC1(C)C(=O)C2=COC(c3ccc(OC)cc3)=CC2=C(Br)C1=O (configuration not stated)
- AC50 [6]: 1.51 µM (active)
- EC50 [7]: 32.9 µM (active)
- EC50 [8]: 31.5 µM (active)
- IC50 (Genome polyprotein): > 100 µM (active)

Structure (SMILES): N#Cc1ccc(Sc2nc3ccccc3[nH]2)cc1C#N
- IC50 (Fatty acid synthase [3]): 2.3 µM (active)
- IC50 (Fatty acid synthase [4]): 2.7 µM (active)

Structure (SMILES): Cc1ccc(N(Cc2cc3cccc(C)c3nc2O)S(=O)(=O)c2ccccc2)c(C)c1
- IC50 [1]: 4.45 µM (active)
- IC50 [2]: 5.56 µM (active)

Structure (SMILES): O=C(O)c1ccc(Cl)c(S(=O)(=O)Nc2ccc3c[nH]nc3c2)c1
- AC50 (Caspase-6): 11.1 µM (active)

Structure (SMILES): Fc1ccccc1CSc1nc2cc(Br)c[nH]c-2n1
- EC50 [9]: 116 nM (active)
- IC50 [10]: 83.3 µM (inactive)
- EC50 (H4): 20.3 µM (active)
- EC50 [11]: 89.7 µM (active)

Structure (SMILES): CCC(=O)Nc1ccc(-c2ccc(N3CCC(C)CC3)nn2)cc1
- AC50 (HeLa): 146 µM (active)

Structure (SMILES): COc1ccc2c(c1OC)C(=O)OC2Nc1nc(-c2cc3cc(Br)ccc3oc2=O)cs1 (configuration not stated)
- AC50 (HeLa): 290 µM (active)
- CC50 [12]: 30.7 µM (active)

Structure (SMILES): COc1ccccc1CNC(=O)COC(=O)c1cc([N+](=O)[O-])ccc1N1CCOCC1
- IC50 (Fatty acid synthase [3]): 1.64 µM (active)
- IC50 (Fatty acid synthase [4]): 1.31 µM (active)

Structure (SMILES): CCn1c(CNc2ccc(Cl)cc2)nnc1SCc1ccc(Cl)cc1
- AC50 [6]: 5.01 µM (active)

Structure (SMILES): COc1ccc(-n2c(C)cc(C(=O)C[N+]34CCN(CC3)CC4)c2C)cc1
- IC50 [1]: 2.64 µM (active)
- IC50 [2]: 2.73 µM (active)

Structure (SMILES): O=C(Nc1ccc(F)cc1)c1ccc2snnc2c1
- EC50 [13]: > 50 µM (active)

Structure (SMILES): COc1ccc2c(c1)[C@H]1[C@H](CO2)[C@H](c2ccccc2)[C@]2(C)C(=O)Nc3ccc(Br)cc3C(=O)N12
- AC50 [6]: 1.59 µM (active)

Structure (SMILES): CCC(=O)c1ccc(OCC(=O)Nc2cc(S(=O)(=O)N3CCCCC3)ccc2N2CCN(CC)CC2)cc1
- IC50 [1]: 3.32 µM (active)
- IC50 [2]: 5.31 µM (active)

Structure (SMILES): Cc1cccc(N=C2c3cc([N+](=O)[O-])ccc3-c3c2cc([N+](=O)[O-])cc3[N+](=O)[O-])c1
- IC50 (Nonstructural protein 1): 11.7 µM (active)
- AC50 [6]: 16.6 µM (active)

Structure (SMILES): O=C1C=CC(=Nc2ccc(F)cc2)O1
- AC50 [6]: 2.25 µM (active)

Structure (SMILES): Cn1c2ccccc2c2cc(/C=N/NC(=O)c3cc(O)cc(O)c3)ccc21
- IC50 [1]: 16.2 µM (active)
- IC50 [2]: 41.6 µM (active)
- CC50 [12]: 12.8 µM (active)

Structure (SMILES): COc1ccc(Cl)cc1N(CC(=O)N/N=C/c1ccc(OCC(N)=O)cc1)S(C)(=O)=O
- AC50 (Caspase-6): 9 µM (active)

Structure (SMILES): COc1ccc(C)c2s/c(=N\C(=O)c3ccc(C(C)=O)cc3)n(C)c12
- AC50 (HeLa): 40.9 µM (active)

Structure (SMILES): COc1cc(O)c(/C=N/NC(=O)c2ccncc2)c(OC)c1[N+](=O)[O-]
- IC50 (Nonstructural protein 1): 8.82 µM (active)
- IC50 (Albumin): > 94.1 µM (inactive)

Structure (SMILES): COc1ccc([N+](=O)[O-])cc1NC(=O)Nc1ccccc1
- IC50 (Fatty acid synthase [3]): 15.5 µM (active)
- IC50 (Fatty acid synthase [4]): 19.9 µM (active)
